Experimental findings from patent publication US9062124B2, “GIP-based mixed agonists for treatment of metabolic disorders and obesity” (priority 2008, dated 2015) are described below.

The term EC50 denotes the concentration giving half of the maximal effect. Read a low EC50 as higher potency in that assay.

Common to all, as to type: cell-based
For one assay, the target named is T1, GIP receptor (Homo sapiens, UniProt P48546).
T1 construct: expressed in transfected cells; host or cells: HEK293
T1 sequence (P48546 22-466): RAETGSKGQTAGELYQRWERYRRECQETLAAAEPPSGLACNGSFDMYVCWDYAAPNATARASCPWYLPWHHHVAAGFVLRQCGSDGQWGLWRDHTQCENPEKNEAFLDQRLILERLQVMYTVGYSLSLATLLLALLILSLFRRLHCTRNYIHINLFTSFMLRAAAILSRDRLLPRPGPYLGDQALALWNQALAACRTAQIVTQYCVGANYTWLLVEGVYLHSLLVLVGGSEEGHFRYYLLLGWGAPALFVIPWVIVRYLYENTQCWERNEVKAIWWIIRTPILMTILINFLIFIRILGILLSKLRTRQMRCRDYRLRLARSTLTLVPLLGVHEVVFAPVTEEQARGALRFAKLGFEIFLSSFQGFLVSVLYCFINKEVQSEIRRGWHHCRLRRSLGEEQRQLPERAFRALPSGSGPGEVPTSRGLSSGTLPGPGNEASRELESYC
In words: cAMP synthesis functional assay (firefly luciferase reporter in HEK293 cells), GIP receptor. To be noted: for EC50: GIP Receptor EC50, cAMP luciferase reporter assay as in Example 16. A general note: In a reporter assay the amount or activity of a reporter protein is the signal.

Assay [1] concerns glucagon receptor, GLP-1 receptor or GIP receptor. Put plainly: Agonist profile across receptors assigned from the cAMP reporter assay data. To be noted: assigned from the in vitro EC50 data of Tables 1-4.
For the next assay, the target named is T2, glucagon receptor (Homo sapiens, UniProt P47871).
T2 construct: expressed in transfected cells; host or cells: HEK293
T2 sequence (P47871 26-477): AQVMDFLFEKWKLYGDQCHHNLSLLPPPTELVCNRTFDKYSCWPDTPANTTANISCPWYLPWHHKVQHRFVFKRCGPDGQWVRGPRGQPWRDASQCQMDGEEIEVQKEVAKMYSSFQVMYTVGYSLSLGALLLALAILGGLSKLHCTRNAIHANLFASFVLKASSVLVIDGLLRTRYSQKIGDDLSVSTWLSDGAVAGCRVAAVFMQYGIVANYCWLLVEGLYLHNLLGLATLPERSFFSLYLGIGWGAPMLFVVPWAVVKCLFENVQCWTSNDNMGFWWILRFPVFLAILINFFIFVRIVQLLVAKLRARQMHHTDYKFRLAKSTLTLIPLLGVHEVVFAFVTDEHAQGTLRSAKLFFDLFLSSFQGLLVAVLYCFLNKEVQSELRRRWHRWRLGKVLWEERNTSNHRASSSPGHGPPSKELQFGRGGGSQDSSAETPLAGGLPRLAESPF
Put plainly: cAMP synthesis functional assay (firefly luciferase reporter in HEK293 cells), glucagon receptor. To be noted: for EC50: Glucagon Receptor EC50, cAMP luciferase reporter assay as in Example 16.

A further assay addresses T3, GLP-1 receptor (Homo sapiens, UniProt P43220).
T3 construct: expressed in transfected cells; host or cells: HEK293
Put plainly: cAMP synthesis functional assay (firefly luciferase reporter in HEK293 cells), GLP-1 receptor. To be noted: for EC50: GLP-1 Receptor EC50, cAMP luciferase reporter assay as in Example 16.

The mark [2] stands for this setting: relative to the standard (Std.) EC50 of the same run.
The mark [3] stands for this setting: Table 1, relative to the native hormone of the indicated receptor.

Where a SMILES comes first, the peptide text is derived from it. Bridges are numbered along the chain shown (N, C = ends). Where no end group is shown, it is not given here. [ ]: non-standard residue; d: D form. PEG 40 kDa = PEG (40 kDa) covalently attached to Cys; C18 acyl = 18 carbon fatty acyl group; Aib = CC(C)(N)C(=O)O

T3 sequence (P43220 24-463, species assumed): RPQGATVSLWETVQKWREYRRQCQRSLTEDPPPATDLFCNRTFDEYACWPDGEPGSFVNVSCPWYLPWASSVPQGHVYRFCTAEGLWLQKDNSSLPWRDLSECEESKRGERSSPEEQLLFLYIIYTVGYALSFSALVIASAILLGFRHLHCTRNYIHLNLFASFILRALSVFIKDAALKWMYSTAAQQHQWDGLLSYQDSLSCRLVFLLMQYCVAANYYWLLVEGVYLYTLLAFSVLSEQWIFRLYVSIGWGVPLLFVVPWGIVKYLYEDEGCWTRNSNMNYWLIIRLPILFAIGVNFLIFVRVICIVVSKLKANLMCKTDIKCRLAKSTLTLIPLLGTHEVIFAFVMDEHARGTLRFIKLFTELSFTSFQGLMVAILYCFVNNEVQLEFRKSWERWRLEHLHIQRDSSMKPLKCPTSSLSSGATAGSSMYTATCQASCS

Turning to `CCCCCCCCCCCCCCCCCC(=O)NCCCC[C@H](NC(=O)[C@@H](NC(=O)[C@H](Cc1ccccc1)NC(=O)[C@H](CCC(=O)O)NC(=O)C(C)(C)NC(=O)[C@H](C)NC(=O)[C@H](C)NC(=O)[C@H](CCC(N)=O)NC(=O)[C@H](CCCCN)NC(=O)[C@H](CC(=O)O)NC(=O)[C@H](CC(C)C)NC(=O)[C@H](Cc1ccc(O)cc1)NC(=O)[C@@H](NC(=O)[C@H](CO)NC(=O)[C@H](Cc1ccc(O)cc1)NC(=O)[C@H](CC(=O)O)NC(=O)[C@H](CO)NC(=O)[C@@H](NC(=O)[C@H](Cc1ccccc1)NC(=O)[C@@H](NC(=O)CNC(=O)[C@H](CCC(=O)O)NC(=O)C(C)(C)NC(=O)[C@@H](N)Cc1ccc(O)cc1)[C@@H](C)O)[C@@H](C)O)[C@@H](C)CC)C(C)C)C(=O)N[C@@H](Cc1c[nH]c2ccccc12)C(=O)N[C@@H](CC(C)C)C(=O)N[C@@H](CC(C)C)C(=O)N[C@@H](C)C(=O)NCC(=O)NCC(=O)N1CCC[C@H]1C(=O)N[C@@H](CO)C(=O)N[C@@H](CO)C(=O)NCC(=O)N[C@@H](C)C(=O)N1CCC[C@H]1C(=O)N1CCC[C@H]1C(=O)N1CCC[C@H]1C(=O)N[C@@H](CO)C(N)=O` [mt-267], the EC50 on GIP receptor came to 1.31 nM; on glucagon receptor, 62 nM; at GLP-1 receptor, 2.09 nM. For the same molecule, the “GIP Receptor relative activity” value on GIP receptor (setting [2]) turned out to be 0.65%. The “receptor activity profile (glucagon / GLP-1 / GIP agonism)” value in assay [1] was “exhibited activity at the GIP, GLP-1, and glucagon receptors”. Moreover, on glucagon receptor (setting [2]), the “Glucagon Receptor relative activity” value worked out at 0.07%. Moreover, the “GLP-1 Receptor relative activity” value at GLP-1 receptor (setting [2]) was 0.84%.

In the case of `CCCCCCCCCCCCCC(=O)NCCCC[C@H](NC(=O)[C@H](CO)NC(=O)[C@@H]1CCCN1C(=O)[C@@H]1CCCN1C(=O)[C@@H]1CCCN1C(=O)[C@H](C)NC(=O)CNC(=O)[C@H](CO)NC(=O)[C@H](CO)NC(=O)[C@@H]1CCCN1C(=O)CNC(=O)CNC(=O)[C@H](C)NC(=O)[C@H](CC(C)C)NC(=O)[C@H](CC(C)C)NC(=O)[C@H](Cc1c[nH]c2ccccc12)NC(=O)[C@H](CS)NC(=O)[C@@H](NC(=O)[C@H](Cc1ccccc1)NC(=O)[C@H](CCC(=O)O)NC(=O)C(C)(C)NC(=O)[C@H](C)NC(=O)[C@H](C)NC(=O)[C@H](CCC(N)=O)NC(=O)[C@H](CCCCN)NC(=O)[C@H](CC(=O)O)NC(=O)[C@H](CC(C)C)NC(=O)[C@H](Cc1ccc(O)cc1)NC(=O)[C@@H](NC(=O)[C@H](CO)NC(=O)[C@H](Cc1ccc(O)cc1)NC(=O)[C@H](CC(=O)O)NC(=O)[C@H](CO)NC(=O)[C@@H](NC(=O)[C@H](Cc1ccccc1)NC(=O)[C@@H](NC(=O)CNC(=O)[C@H](CCC(N)=O)NC(=O)C(C)(C)NC(=O)[C@@H](N)Cc1ccc(O)cc1)[C@@H](C)O)[C@@H](C)O)[C@@H](C)CC)C(C)C)C(N)=O` [mt-286], the EC50 at GIP receptor turned out to be 0.0159 nM; at glucagon receptor it was 0.0612 nM; on GLP-1 receptor, 0.0225 nM. The “GIP Receptor relative activity” value at GIP receptor (setting [2]) was found to be 68.55%. For the same molecule, in assay [1], the “receptor activity profile (glucagon / GLP-1 / GIP agonism)” value was “exhibited activity at the GIP, GLP-1, and glucagon receptors”. The “Glucagon Receptor relative activity” value at glucagon receptor (setting [2]) worked out at 84.80%. Further, at GLP-1 receptor (setting [2]), the “GLP-1 Receptor relative activity” value turned out to be 52.00%.

As for `CCCCCCCCCCCCCC(=O)NCCCC[C@H](NC(=O)[C@H](CO)NC(=O)[C@@H]1CCCN1C(=O)[C@@H]1CCCN1C(=O)[C@@H]1CCCN1C(=O)[C@H](C)NC(=O)CNC(=O)[C@H](CO)NC(=O)[C@H](CO)NC(=O)[C@@H]1CCCN1C(=O)CNC(=O)CNC(=O)[C@H](C)NC(=O)[C@H](CC(C)C)NC(=O)[C@H](CC(C)C)NC(=O)[C@H](Cc1c[nH]c2ccccc12)NC(=O)[C@H](CS)NC(=O)[C@@H](NC(=O)[C@H](Cc1ccccc1)NC(=O)[C@H](CCC(=O)O)NC(=O)C(C)(C)NC(=O)[C@H](C)NC(=O)[C@H](C)NC(=O)[C@H](CCC(N)=O)NC(=O)[C@H](CCCCN)NC(=O)[C@H](CC(=O)O)NC(=O)[C@H](CC(C)C)NC(=O)[C@H](Cc1ccc(O)cc1)NC(=O)[C@@H](NC(=O)[C@H](CO)NC(=O)[C@H](Cc1ccc(O)cc1)NC(=O)[C@H](CC(=O)O)NC(=O)[C@H](CO)NC(=O)[C@@H](NC(=O)[C@H](Cc1ccccc1)NC(=O)[C@@H](NC(=O)CNC(=O)[C@H](CCC(=O)O)NC(=O)C(C)(C)NC(=O)[C@@H](N)Cc1ccc(O)cc1)[C@@H](C)O)[C@@H](C)O)[C@@H](C)CC)C(C)C)C(N)=O` [mt-306], the “GIP Receptor relative activity” value on GIP receptor (setting [2]) was found to be 254.69%. Besides, in assay [1], the “receptor activity profile (glucagon / GLP-1 / GIP agonism)” value is “exhibited activity at the GIP, GLP-1, and glucagon receptors”. In addition, at glucagon receptor, the EC50 turned out to be 1.5 nM. The “Glucagon Receptor relative activity” value on glucagon receptor (setting [2]) is recorded as 3.20%. Further, the “GLP-1 Receptor relative activity” value at GLP-1 receptor (setting [2]) came out at 80.60%.

As to `CC[C@H](C)[C@H](NC(=O)[C@H](CO)NC(=O)[C@H](Cc1ccc(O)cc1)NC(=O)[C@H](CC(=O)O)NC(=O)[C@H](CO)NC(=O)[C@@H](NC(=O)[C@H](Cc1ccccc1)NC(=O)[C@@H](NC(=O)CNC(=O)[C@H](CCC(N)=O)NC(=O)[C@H](CO)NC(=O)[C@@H](N)Cc1ccc(O)cc1)[C@@H](C)O)[C@@H](C)O)C(=O)N[C@@H](Cc1ccc(O)cc1)C(=O)N[C@@H](CC(C)C)C(=O)N[C@@H](CC(=O)O)C(=O)N[C@H]1CCC(=O)NCCCC[C@@H](C(=O)N[C@@H](CCC(=O)O)C(=O)N[C@@H](Cc2ccccc2)C(=O)N[C@H](C(=O)N[C@@H](CC(N)=O)C(=O)N[C@@H](Cc2c[nH]c3ccccc23)C(=O)N[C@@H](CC(C)C)C(=O)N[C@@H](CC(C)C)C(=O)N[C@@H](C)C(=O)NCC(=O)NCC(=O)N2CCC[C@H]2C(=O)N[C@@H](CO)C(=O)N[C@@H](CO)C(=O)NCC(=O)N[C@@H](C)C(=O)N2CCC[C@H]2C(=O)N2CCC[C@H]2C(=O)N2CCC[C@H]2C(=O)N[C@@H](CO)C(N)=O)C(C)C)NC(=O)[C@H](C)NC(=O)[C@H](C)NC(=O)[C@H](CCC(N)=O)NC1=O` [mt-140] (H-YSQGTFTSDYSIYLDEQAAKEFVNWLLAGGPSSGAPPPS-NH2; lactam 16-20; N-terminus assumed), the “GIP Receptor relative activity” value on GIP receptor (setting [3]) was 12.85%. The “receptor activity profile (glucagon / GLP-1 / GIP agonism)” value in assay [1] is recorded as “exemplary GLP-1/GIP/glucagon triagonist peptides”. Also, the “Glucagon Receptor relative activity” value on glucagon receptor (setting [3]) is listed as 131.15%. Further, the “GLP-1 Receptor relative activity” value at GLP-1 receptor (setting [3]) was 49.56%.

As for “mt-175: glucagon analog peptide, C-terminal amide (Y[Aib]QGTFTSDYSIYLDEQAAKEFVC(PEG 40 kDa)WLLAGGPSSGAPPPS-NH2; lactam 16-20)”, the “receptor activity profile (glucagon / GLP-1 / GIP agonism)” value in assay [1] is given as “exemplary GLP-1/GIP/glucagon triagonist peptides”.

For the molecule “mt-172: glucagon analog peptide, C-terminal amide (Y[Aib]QGTFTSDYSIYLDEQAAKEFVC(PEG 40 kDa)WLLAG-NH2; lactam 16-20)”, the “receptor activity profile (glucagon / GLP-1 / GIP agonism)” value in assay [1] was “exemplary GLP-1/GIP/glucagon triagonist peptides”.

For the molecule “mt-248: sequence of mt-170 with an AIB at position 16 in lieu of the lactam (Y[Aib]QGTFTSDYSIYLD[Aib]QAAKEFVNWLLAGGPSSGAPPPSC(PEG 40 kDa)-NH2)”, the “receptor activity profile (glucagon / GLP-1 / GIP agonism)” value in assay [1] is “exhibited activities of glucagon/GLP-1/GIP triagonists”.

As for “mt-310: acylated version of mt-274: C-terminal Lys with C18 fatty acyl group, 40 kDa PEG on Cys at position 24 (Y[Aib]EGTFTSDYSIYLDKQAA[Aib]EFVC(PEG 40 kDa)WLLAGGPSSGAPPPSK(C18 acyl)-NH2)”, the “receptor activity profile (glucagon / GLP-1 / GIP agonism)” value in assay [1] is “exhibited activity at the GIP, GLP-1, and glucagon receptors”.
